Data: patent publication US20080318970A1, “Treatment of Infectious Diseases” (priority 2004, published 2008)
≈ marks a conversion by molar mass, not a printed value.

Experiments:
[1] = tested on: E. coli, LN 3164; test: Effect of chemosensitising compounds on DR (DR ratio) with ciprofloxacin, microtiter assay; type: cell-based; conditions: MIC ciprofloxacin alone / MIC ciprofloxacin + chemosensitising compound at ¼ of its MIC; E. coli LN 3164
Protocol: The effects of the chemosensitising compounds on DR were studied by the microtiter assay described above by exposing cells to 0-64 μg/ml anti-infective drug in the absence or presence of chemosensitising compound. Each experiment was repeated in tripleduplicate. MIC values represent the mean values of two separate experiments.
A log phase culture of bacteria was diluted with fresh pre-warmed medium and adjusted to a defined OD at 600 nm in order to give a final concentration of 1×10^4 bacteria/ml medium in each well. […] Anti-infective agent was added to the bacterial culture in the wells in two-fold dilutions in order to give final concentrations ranging from 0 to 64 μg/ml. Trays were incubated at 37° C. for 16 h. The DR ratio was defined as the ratio between the MIC value for anti-infective agent alone divided by the MIC for the anti-infective agent in the presence of the chemosensitising compound. This ratio represents the increase in apparent potency of the anti-infective agent caused by the chemosensitising compound, and may be expressed as
DR ratio=(MICanti-infective agent)/(MICanti-infective agent+chemosensitising compound)

[2] = tested on: P. aeruginosa 432b; test: Checkerboard combination study (FIC index); type: cell-based; conditions: isolate resistant (R)
Protocol: P. aeruginosa 432b. Clinical multidrug resistant isolate. Resistant to tetracycline, beta-lactams, fluoroquinolones, and aminoglycosides. Beta-lactamase producing, changes in Penicillin Binding Proteins and changes in Outer Membrane Proteins.
(§1) The synergistic effect was studied by checkerboard combination studies exposing cells to 0-64 μg/ml anti-infective agent in the absence or presence of trans-flupenthixol, cis-flupenthixol or trans-clopenthixol. Each experiment was repeated in tripleduplicate. MIC values represent the mean values of two separate experiments,
(§2) A log phase culture of bacteria was diluted with fresh pre-warmed medium and adjusted to a defined OD at 600 nm in order to give a final concentration of 1×10^4 bacteria/ml medium in each well. Each chemosensitising compound was added to the bacterial culture in the wells in two-fold dilutions in order to give final concentrations ranging from 0 to 8 μg/ml. Anti-infective agent was added to the bacterial culture in the wells in two-fold dilutions in order to give final concentrations ranging from 0 to 64 μg/ml Trays were incubated at 37° C. for 16 h. Wells were assessed visually for growth. The Fractional Inhibitory Concentration (FIC) was calculated for each anti-infective agent alone and in combination with trans-flupenthixol, cis-flupenthixol or trans-clopenthixol. The following formulae were used to calculate the FIC index:
(§3) FIC=FICchemosensitising compound+FICanti-infective agent
(§4) FICchemosensitising compound=(MICchemosensitising compound+anti-infective agent)/(MICchemosensitising compound)
(§5) FICanti-infective agent=(MICanti-infective agent+chemosensitising compound/(MICanti-Infective agent)
(§6) Synergy was defined as a FIC index of <0.5.

[3] = Pharmacokinetic studies of Trans-clopenthixol with mice, concentrations in sera; type: in vivo, NMRI mice; conditions: single dose of 0.3 mg per mouse, subcutaneous, 1-24 h (FIG. 4)
Protocol: Pharmacokinetic studies were done with NMRI mice. Concentrations in sera were determined after the administration of a single dose of 0.3 mg per mouse. The drug was administered by subcutaneous injection in the neck region in a volume of 0.2 ml per dose. At 1, 2, 4, 6, and 24 hours after the injection blood samples were obtained from the mice in groups of three. After collection, the blood was centrifuged and the serum was stored at −80° C. until it was analyzed by High Pressure Liquid Chromatography.

[4] = tested on: S. aureus O11; test: Checkerboard combination study (FIC index); type: cell-based, Staphylococcus aureus; conditions: anti-infective agent Dicloxacillin; isolate susceptible (S)
Protocol: Staphylococcus aureus O11. Clinical isolate resistant to penicillin. Susceptible to methicillin, tetracycline, beta-lactams, fluoroquinolones, chloramphenicol and aminoglycosides.
as §1, §2, §3, §4, §5, §6

[5] = tested on: E. faecalis F84; test: Checkerboard combination study (FIC index); type: cell-based, Enterococcus faecalis; conditions: MDR isolate
Protocol: Enterococcus faecalis, F84. A multidrug resistant clinical isolate.
as §1
as §2, with “Each chemosensitising compound was added to the bacterial culture in the wells in two-fold dilutions in order to give final concentrations ranging from 0 to 8 μg/ml.” left out
as §3, §4, §5, §6

[6] = tested on: Fluconazole Resistant Candida albicans; test: Checkerboard combination study on fungals, broth microdilution (NCCLS M27-A); type: cell-based; conditions: for FIC index: fluconazole with trans-clopenthixol
Protocol: The synergistic effect of Trans-clopenthixol was studied by checkerboard combination studies exposing cells to 0-256 μg/ml anti-infective agent in the absence or presence of trans-clopenthixol (0 to 8 μg/ml in two-fold dilutions). Each experiment was repeated in tripleduplicate. MIC values represent the mean values of two separate experiments.
Clinical Isolate of a Fluconazole Resistant Candida albicans from a Patient with candidemia.
The isolates were subcultured for 24 h on Sabouraud glucose agar before susceptibility testing.
Broth microdilution tests were performed according to NCCLS document M27-A (Ref: National Committee for Clinical Laboratory Standards. (1997). Reference Method for Broth Dilution Antifungal Susceptibility Testing of Yeasts: Approved Standard M27-A. NCCLS, Wayne, Pa.)
Microtitre plates were read spectrophotometrically at 530 nm, after mixing the wells by pipetting to resuspend yeast sediments.
The Fractional Inhibitory Concentration (FIC) was calculated for the anti-infective agent alone and in combination with trans-clopenthixol. The following formulae were used to calculate the FIC index:
as §3, §4
FICanti-infective agent=(MICanti-infective agent+chemosensitising compound/(MICanti-infective agent)
as §6

[7] = tested on: Enterococcus faecalis BG-029; test: MIC by microdilution test (NCCLS); type: cell-based; conditions: clinical isolate from human urine, resistant to ciprofloxacin
Protocol: A clinical isolate of Enterococcus faecalis BG-029 from human urine was used.
The MICs were determined by the microdilution test according to the NCCLS Guidelines.

[8] = tested on: E. coli 331ME; test: Checkerboard combination study (FIC index); type: cell-based; conditions: MDR isolate
Protocol: E. coli 331 ME. In vivo-selected multidrug resistant clinical isolates of E. coli. Strains were isolated from a patient with severe cystitis/urosepsis. Resistant to tetracycline, beta-lactams, fluoroquinolones, chloramphenicol and aminoglycosides.
as §1, §2, §3, §4, §5, §6

[9] = anti-infective agent Ciprofloxacin
[10] = anti-infective agent Gentamicin
[11] = anti-infective agent Piperacillin

For `OCCN1CCN(CC/C=C2\c3ccccc3Sc3ccc(Cl)cc32)CC1` [trans-clopenthixol], the DR ratio [1] was 128, the FIC index [2, 9] was 0.008 and the FIC index [2, 10] was 0.032. The FIC index [2, 11] was 0.063, the Serum values [3] was “less than 300 ng/ml” and the FIC index [4] was 0.25. For the same compound, the FIC index ([5]; anti-infective agent Dicloxacillin) was 0.03, the FIC index ([5]; anti-infective agent Vanomycin) was 0.06 and the MIC ([6]; agent alone) was 32 µg/mL. It also gave an FIC index [6] of under 0.5, an FIC index ([6]; listed as Trans-clopenthixol) of 0.16 and an effective concentrations ([6]; in combination with an anti-fungal agent) of at most 3 µg/mL. The MIC [7] was 6 µg/mL (≈ 15 µM), the FIC index [8, 9] was 0.003 and the FIC index [8, 10] was 0.008. The FIC index [8, 11] was 0.063.
